The text below walks through data of patent EP4624470A1, “YOHIMBINE DERIVATIVE, AND PREPARATION METHOD THEREFOR AND PHARMACEUTICAL COMPOSITION AND USE THEREOF” (Shanghai Institute of Materia Medica, Chinese Academy of …, priority 2022, dated 2024).

One series has as its target T1, α2A-AR (Homo sapiens, UniProt P08913).
T1 construct: expressed in transfected cells; stably expressing α2A-AR/Gα16
T1 sequence (P08913 1-465): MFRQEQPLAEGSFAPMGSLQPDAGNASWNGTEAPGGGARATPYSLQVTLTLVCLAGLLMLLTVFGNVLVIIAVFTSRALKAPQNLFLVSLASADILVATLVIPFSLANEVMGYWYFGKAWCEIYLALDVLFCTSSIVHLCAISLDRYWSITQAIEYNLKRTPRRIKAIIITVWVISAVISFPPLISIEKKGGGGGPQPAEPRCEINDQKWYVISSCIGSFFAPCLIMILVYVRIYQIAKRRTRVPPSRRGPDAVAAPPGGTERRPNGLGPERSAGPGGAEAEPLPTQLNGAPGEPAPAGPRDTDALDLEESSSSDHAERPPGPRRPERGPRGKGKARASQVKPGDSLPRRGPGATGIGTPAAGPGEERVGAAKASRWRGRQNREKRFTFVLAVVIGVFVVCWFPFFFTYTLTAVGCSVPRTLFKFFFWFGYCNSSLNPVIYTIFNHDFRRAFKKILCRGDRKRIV
The series can be described thus: α2A-AR antagonist assay (calcium flux, Fluo-4, FlexStation II). The class given is cell-based. Conditions: antagonistic activity against agonist UK14304 in cells stably expressing α2A-AR/Ga16. The source says: By establishing a cell line co-transfected with the target receptor and Ga16, the receptor can be activated to cause the activation of Gα16 protein, which in turn activates phospholipase C (PLC) to produce IP3 and DAG. IP3 can bind to the IP3 receptors on the endoplasmic reticulum and mitochondria in the cell, thereby causing the release of intracellular calcium. Therefore, measuring the changes in intracellular calcium can be used as a method to detect the activation state of the target receptor. Fluo-4/AM is a calcium fluorescent probe indicator used to measure calcium ions. As a non-polar lipid-soluble compound, after entering the cell, the AM group dissociates under the action of cell lipases and releases Fluo-4; since Fluo-4 is a polar molecule that is not easy to pass through the lipid bilayer membrane, it can keep in the cell for a long time. Finally, the level of Ga protein activation can be reflected by measuring the excited fluorescence intensity.
Before the test, the test compound was dissolved in DMSO to prepare a stock solution, which was diluted with culture medium to the required concentration when used.
Background: A change in cytosolic calcium serves as a functional read-out for many receptors and channels.

A short description of series [1]: Tissue distribution test in mice. The class given is in vivo. To be noted: gavage 10 mg/kg. How it is done: Mice were fasted for more than 12 h and had free access to water. Table 3 Experimental Scheme for tissue distribution of Compound C27 in mice
Mice were fasted for more than 12 h and had free access to water.
• (1) Tissue distribution test in mice: The animals in each group were anesthetized and killed 2 h after administration. The brain, pancreas, heart, liver, and kidney tissues were collected by dissection, washed with physiological saline, and stored in a -20 °C refrigerator for testing. At the same time, 0.3 mL of whole blood was collected and placed in an EDTA-K2 anticoagulant tube. The blood was separated by centrifugation at 11,000 rpm for 5 min and stored in a -20 °C refrigerator for testing.
The concentration of unchanged drug in plasma and tissues was determined.
(2) Tissue distribution test of compound C27 in mice: At corresponding time points (0.25, 2 and 8 h) after gavage administration, mice were bled to death through the abdominal aorta. Brain, heart, liver, lung, pancreas and kidney tissues were immediately collected by dissection, and part of the plasma was collected. The operation was carried out in an ice water bath.
Centrifugation conditions: 11000 rpm for 5 min to separate plasma (about 200 µL).

Another series deals with type 2 diabetic mice. The series can be described thus: Blood sugar lowering effect in high-sugar and high-fat diet-induced type 2 diabetes mouse model. Format: in vivo, C57BL\6J mice. An excerpt:
A high-sugar and high-fat diet-induced type 2 diabetes mouse model was used in this experiment, and the following tests were mainly conducted: • 1) Effect of single intraperitoneal administration on basal blood glucose, glucose tolerance and insulin sensitivity in diabetic mice. • 2) Effect of single gavage administration on glucose tolerance and insulin sensitivity in diabetic mice. • 3) Effect of continuous chronic intraperitoneal administration on basal blood glucose in diabetic mice.
C57BL\6J mice were fed with a high-sugar and high-fat diet for 3 consecutive months. The test experiment was conducted after the average body weight of the mice stabilized at more than 50g and the average basal blood sugar value stabilized at more than 12mmol/L.
Blood glucose level was mainly measured by measuring tail vein blood using a blood glucose meter. For the test of basal blood glucose effect, the mice were on a normal diet. The basal blood glucose value before administration was first measured, and then a single intraperitoneal injection or a single gavage of the yohimbine derivative C19 (10 mg/kg mouse body weight) was given, and the venous blood glucose level was measured 15, 30, 60, 90, and 120 minutes after administration. The mouse glucose tolerance test was performed after the mouse has eaten for 16 hours overnight. 30 minutes after a single intraperitoneal injection or a single gavage of the yohimbine derivative C19 (10 mg/kg mouse body weight), glucose (1.5 g/kg) was injected intraperitoneally, and the venous blood glucose level was measured 15, 30, 60, 90, and 120 minutes later. Mouse insulin sensitivity was tested after the mouse has eaten for 6 hours. 30 minutes after a single intraperitoneal injection or single gavage of yohimbine derivative C19 (10 mg/kg mouse body weight), insulin (1 UI/kg) was injected intraperitoneally, and the venous blood glucose level was measured 15, 30, 60, 90, and 120 minutes later. For the effect of chronic administration on blood glucose levels, diabetic mice were intraperitoneally injected with yohimbine derivative C19 (10 mg/kg) every day for 12 consecutive days, and the basal blood glucose level of mice under free diet was measured every day before drug injection. The control group was injected with normal saline or gavage.

[2] abbreviates: relative ratio of tissue distribution concentration to blood concentration.

Consider `N#Cc1ccc(Cc2noc([C@@H]3[C@H]4C[C@H]5c6[nH]c7ccccc7c6CCN5C[C@@H]4CC[C@@H]3O)n2)cc1` [Compound C19], for which the IC50 (as a rule, the midpoint of a concentration-inhibition curve) at α2A-AR lay in the range of 0.3 to 0.5 µM. Further, the pancreatic distribution entry in series [1] is “good pancreatic distribution”. For the same molecule, in series [1] (setting [2]), the “brain tissue distribution compared with yohimbine” value was “lower brain tissue distribution than yohimbine”. Further, in series [1] (setting [2]), the “brain tissue distribution, times lower than that of yohimbine” value is “about forty times lower”. Also, the “basal blood glucose level” value in the series on type 2 diabetic mice (chronic intraperitoneal injection, 10 mg/kg once a day, 12 consecutive days (Figure 8)) is “stably maintain the basal blood sugar level of diabetic mice at a state closer to the normal level”; in the series with type 2 diabetic mice (single intraperitoneal injection, 10 mg/kg (Figure 3)) it was “significantly reduce the high blood sugar level of diabetic mice”. The glucose tolerance result with type 2 diabetic mice (single gavage administration, 10 mg/kg (Figure 6)) is on record as “improve glucose tolerance”; with type 2 diabetic mice (single intraperitoneal injection, 10 mg/kg (Figure 4)) it was “improve glucose tolerance”. For the same molecule, the insulin sensitivity entry with type 2 diabetic mice (single gavage administration, 10 mg/kg (Figure 7)) is “increase insulin sensitivity”; in the series with type 2 diabetic mice (single intraperitoneal injection, 10 mg/kg (Figure 5)), “increase insulin sensitivity”.
